Data from the NIST ThermoML archive (doi:10.1007/s10765-009-0648-5).

Columns and labels:
[1] = 101 kPa, Liquid
[2] = wn = mass fraction of the nth substance listed; conditions: 101 kPa, Liquid

CN(C)C=O [dimethylformamide]
[1]
Conditions | mass density [kg/m3] | speed of sound [m/s]
288.15 K | 953.442 | 1496.6
293.15 K | 948.685 | 1477.3
298.15 K | 943.917 | 1457.8
303.15 K | 939.142 | 1438.4
308.15 K | 934.357 | 1419

C[S+](C)[O-] [dimethyl sulfoxide]
[1]
Conditions | mass density [kg/m3] | speed of sound [m/s]
288.15 K | 1105.34 | 1519.1
293.15 K | 1100.31 | 1502.2
298.15 K | 1095.28 | 1485.2
303.15 K | 1090.25 | 1468.3
308.15 K | 1085.23 | 1451.5

C[S+](C)[O-] [dimethyl sulfoxide] + CCC[n+]1ccn(C)c1.[Br-]
[2], w2 = 0
Conditions | mass density [kg/m3] | speed of sound [m/s]
288.15 K | 1105.34 | 1519.1
293.15 K | 1100.31 | 1502.2
298.15 K | 1095.28 | 1485.2
303.15 K | 1090.25 | 1468.3
308.15 K | 1085.23 | 1451.5

CCC[n+]1ccn(C)c1.[Br-] [1-methyl-3-propylimidazolium bromide] + C[S+](C)[O-]
[2]
Conditions | mass density, 288.15 K [kg/m3] | mass density, 293.15 K [kg/m3] | mass density, 298.15 K [kg/m3] | mass density, 303.15 K [kg/m3] | mass density, 308.15 K [kg/m3] | speed of sound, 288.15 K [m/s] | speed of sound, 293.15 K [m/s] | speed of sound, 298.15 K [m/s] | speed of sound, 303.15 K [m/s] | speed of sound, 308.15 K [m/s]
w1 = 0.0077 | 1107.07 | 1102.06 | 1097.05 | 1092.04 | 1087.03 | 1520.9 | 1504.2 | 1487.3 | 1470.4 | 1453.6
w1 = 0.0102 | 1107.62 | 1102.61 | 1097.6 | 1092.6 | 1087.6 | 1521.5 | 1504.7 | 1487.8 | 1470.9 | 1454.2
w1 = 0.012 | 1108.05 | 1103.04 | 1098.04 | 1093.03 | 1088.03 | 1521.9 | 1505.2 | 1488.3 | 1471.4 | 1454.7
w1 = 0.0159 | 1108.91 | 1103.91 | 1098.91 | 1093.92 | 1088.93 | 1523 | 1506 | 1489.2 | 1472.3 | 1455.7
w1 = 0.0203 | 1109.88 | 1104.88 | 1099.89 | 1094.91 | 1089.93 | 1523.8 | 1507 | 1490.2 | 1473.4 | 1456.7
w1 = 0.0252 | 1110.97 | 1105.98 | 1100.99 | 1096.02 | 1091.04 | 1524.8 | 1507.8 | 1491 | 1474.2 | 1457.6
w1 = 0.0297 | 1111.95 | 1106.98 | 1102 | 1097.03 | 1092.07 | 1525.8 | 1509.1 | 1492.3 | 1475.5 | 1458.9
w1 = 0.0356 | 1113.27 | 1108.3 | 1103.33 | 1098.37 | 1093.42 | 1527 | 1510.4 | 1493.6 | 1476.9 | 1460.3
w1 = 0.0423 | 1114.74 | 1109.78 | 1104.82 | 1099.87 | 1094.93 | 1528.5 | 1511.6 | 1494.9 | 1478.2 | 1461.7
w1 = 0.0502 | 1116.49 | 1111.55 | 1106.6 | 1101.67 | 1096.73 | 1530.2 | 1513.5 | 1496.9 | 1480.2 | 1463.6
w1 = 0.0599 | 1118.62 | 1113.69 | 1108.76 | 1103.84 | 1098.93 | 1532.1 | 1515.3 | 1498.7 | 1482.1 | 1465.7
w1 = 1 | 1323.47 | 1319.84 | 1316.22 | 1312.6 | 1308.97 | 1699.3 | 1685 | 1672 | 1659.9 | 1648.3

CN(C)C=O [dimethylformamide] + CCC[n+]1ccn(C)c1.[Br-]
[2], w2 = 0
Conditions | mass density [kg/m3] | speed of sound [m/s]
288.15 K | 953.442 | 1496.6
293.15 K | 948.685 | 1477.3
298.15 K | 943.917 | 1457.8
303.15 K | 939.142 | 1438.4
308.15 K | 934.357 | 1419

CC#N [acetonitrile]
[1]
Conditions | mass density [kg/m3] | speed of sound [m/s]
288.15 K | 787.376 | 1319.1
293.15 K | 782.007 | 1299
298.15 K | 776.609 | 1278.8
303.15 K | 771.183 | 1258.5
308.15 K | 765.725 | 1238.4

CC#N [acetonitrile] + CCC[n+]1ccn(C)c1.[Br-]
[2], w2 = 0
Conditions | mass density [kg/m3] | speed of sound [m/s]
288.15 K | 787.376 | 1319.1
293.15 K | 782.007 | 1299
298.15 K | 776.609 | 1278.8
303.15 K | 771.183 | 1258.5
308.15 K | 765.725 | 1238.4

CCC[n+]1ccn(C)c1.[Br-] [1-methyl-3-propylimidazolium bromide]
[1]
Conditions | mass density [kg/m3] | speed of sound [m/s]
288.15 K | 1323.47 | 1699.3
293.15 K | 1319.84 | 1685
298.15 K | 1316.22 | 1672
303.15 K | 1312.6 | 1659.9
308.15 K | 1308.97 | 1648.3
